# In PMC11363342 (ACS Central Science, 2024):
# Entries after “also recorded” stand apart in the source; their conditions may differ.
# Legend:
# GAA = GAA (Homo sapiens, UniProt P10253); experiment: Competitive activity-based protein profiling with ABP 29 in ALI-PBEC lysate, GAA; type: cell-based; conditions: pH 7, 48 hpi
# SARS-CoV-2 [1] = experiment: CPE reduction assay on H1299/ACE2 lung epithelial cells; type: cell-based; conditions: compared with Vero E6
# SARS-CoV-2 [2] = experiment: Virucidal activity assay; conditions: virus incubated 1 h; compound 11 at 50 μM
# SARS-CoV-2 [3] = experiment: Viral load reduction assay in Calu-3 cells, extracellular viral RNA copies by RT-qPCR; type: cell-based; conditions: Calu-3, MOI 1, 16 hpi
# Protocol: (§1) Cells were pretreated with 11 and infected with SARS-CoV-2 at a multiplicity of infection (MOI) of 1. At 16 h postinfection (hpi) supernatant was harvested to quantify the infectious virus titer by plaque assay and extracellular viral RNA copies by RT-qPCR. […] This is in line with the expected mechanism of action of the compound that involves viral (structural) protein maturation, likely resulting in reduced infectivity of progeny virus. We then calculated the specific infectivity (defined as the number of infectious particles per viral RNA copy) of treated and untreated samples for the data in Figure 3A,B (Figure 3C). […] None of the treatments caused noticeable cytotoxicity in uninfected treated cells (Figure 3B). Similarly, treatment of infected Calu-3 lung epithelial cells with 11 reduced infectious progeny virus titers by ∼10-fold, while no reduction in extracellular viral RNA copies was observed (Figure S3).
# (§2) Figure S2: Cytopathic effect reduction assays on Vero E6 monkey kidney cells and H1299/ACE2 human lung epithelial cells. […]
# (§3) plaque assay and RT-qPCR, respectively. Uninfected compound-treated cells were assessed by MTS assay in parallel to measure cytotoxicity of the compounds. n=3 independent experiments. […]
# in vitro = conditions: African green monkey
# GBA2 = conditions: cited from earlier work
# SARS-CoV-2 [4] = experiment: Viral load reduction assay on H1299/ACE2 cells, extracellular viral RNA copies by RT-qPCR; type: cell-based
# GCS = test system: GCS; parameters: method as in PMID 28776021; conditions: cited from earlier work
# SARS-CoV-2 [5] = experiment: Plaque reduction assay on H1299/ACE2 cells (time of treatment); type: cell-based
# Protocol: To evaluate whether compound 11 has an effect on host proteins (for instance, ACE2) involved in viral entry, we treated monolayers of H1299/ACE2 cells with compound 11 either 48 or 2 h before infection, during infection (0–1 h), or starting from 1 h postinfection (hpi). The cell monolayers were infected with ∼20 PFU of SARS-CoV-2, and after 1 h the inoculum was replaced with an overlay. In one well (Post Infection) the overlay contained compound 11. Remdesivir, a viral RNA synthesis inhibitor, was added to the overlay of another well, as a positive control for blocking virus replication in the cell.
# H1299/ACE2 cells were seeded in a 6-well plate at a density of 1.3 × 10^5 cells/well (20% confluency), 96 h prior to infection. […] The monolayers were infected with ∼20 PFU of SARS-CoV-2/Leiden0008. In the postinfection treatment, the compound (or RDV) was added to the Avicel overlay. Cells were incubated for 4 days at 37 °C before fixation and crystal violet staining.
# GBA1 = conditions: cited from earlier work
# GBA3 = conditions: cited from earlier work
# SARS-CoV-2 [6] = type: cell-based
# SARS-CoV-2 S protein = type: cell-based
# SARS-CoV-2 [7] = experiment: Viral load reduction assay in Calu-3 cells, infectious virus titer by plaque assay; type: cell-based
# Protocol: as §1, §2, §3
structure (smiles),measurement,setting,value
"O=S1(=O)O[C@@H]2[C@H](O)[C@@H](O)[C@H](O)[C@@H](CO)[C@@H]2O1 [Compound 11, 1,6-epi-cyclophellitol cyclosulfate]",in cellulo GAA inhibition by ABP 29 labeling (in words),GAA,most efficient in inhibiting ER α-Glu II and GAA at low concentrations
same,EC50 values in CPE reduction assay (in words),SARS-CoV-2 [1],comparable EC50 values
same,virucidal effect on infectious titer,SARS-CoV-2 [2],no effect on the infectious titer
same,extracellular viral RNA copies (in words),SARS-CoV-2 [3],no reduction
same,CC50 at 3 days,in vitro,> 200 µM
same,inhibition of GBA2,GBA2,completely inactive; also recorded: does not inhibit
same,extracellular viral RNA copy numbers (in words),SARS-CoV-2 [4],only slightly reduced
same,inhibition of GCS,GCS,does not inhibit
same,"plaque formation, pretreatment or treatment only during infection","SARS-CoV-2 [5]; H1299/ACE2, 5 μM, 48 or 2 h before or 0–1 h",had no effect on the number of plaques that developed or their morphology
same,"plaque formation, treatment after infection (in the overlay)","SARS-CoV-2 [5]; H1299/ACE2, compound 11 at 5 μM",prevented the formation of plaques
same,inhibition of GBA1,GBA1,completely inactive; also recorded: does not inhibit
same,inhibition of GBA3,GBA3,does not inhibit
same,concentration at which the inhibitory effect reached a plateau,SARS-CoV-2 [6],1.6 µM
same,reduction of the infectious progeny virus titer,SARS-CoV-2 [6],100 fold
same,specific infectivity (infectious particles per viral RNA copy),"SARS-CoV-2 [6]; H1299/ACE2, 1.5 μM compound",decrease in specific infectivity
same,S protein in infected cells (immunofluorescence),SARS-CoV-2 S protein,reduction in the amount of S protein
same,syncytium formation,SARS-CoV-2 S protein,reduced syncytium formation
same,reduction of infectious virus titers,"SARS-CoV-2 [7]; Calu-3, 0.5–1.6 μM",up to 2 logs
same,reduction of infectious progeny virus titers,"SARS-CoV-2 [7]; Calu-3, MOI 1, 16 hpi",~10 fold
